The record followed here is patent US8846746B2, “Pyrazole compound and pharmaceutical use thereof” (Japan Tobacco Inc., priority 2011, dated 2014).

The structures appear in SMILES notation.

The target in the first assay is human SGLT1 (Homo sapiens (Human), UniProt P13866). The assay can be described thus: SGLT1 inhibitory activity: 14C-AMG uptake into CHO-K1 cell line stably expressing human SGLT1. The class given is cell-based. As to conditions: 14C-AMG uptake, CHO-K1 cells stably expressing human SGLT1. In short, it runs like this: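 Human SGLT1 was stably expressed in CHO-K1 cells. Cells were first held 20 min in sodium-free buffer, then exposed to compound in Na(+)/BSA buffer with tracer and AMG (2 mM in the added solution).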
Sequence of human SGLT1 (P13866 whole entry): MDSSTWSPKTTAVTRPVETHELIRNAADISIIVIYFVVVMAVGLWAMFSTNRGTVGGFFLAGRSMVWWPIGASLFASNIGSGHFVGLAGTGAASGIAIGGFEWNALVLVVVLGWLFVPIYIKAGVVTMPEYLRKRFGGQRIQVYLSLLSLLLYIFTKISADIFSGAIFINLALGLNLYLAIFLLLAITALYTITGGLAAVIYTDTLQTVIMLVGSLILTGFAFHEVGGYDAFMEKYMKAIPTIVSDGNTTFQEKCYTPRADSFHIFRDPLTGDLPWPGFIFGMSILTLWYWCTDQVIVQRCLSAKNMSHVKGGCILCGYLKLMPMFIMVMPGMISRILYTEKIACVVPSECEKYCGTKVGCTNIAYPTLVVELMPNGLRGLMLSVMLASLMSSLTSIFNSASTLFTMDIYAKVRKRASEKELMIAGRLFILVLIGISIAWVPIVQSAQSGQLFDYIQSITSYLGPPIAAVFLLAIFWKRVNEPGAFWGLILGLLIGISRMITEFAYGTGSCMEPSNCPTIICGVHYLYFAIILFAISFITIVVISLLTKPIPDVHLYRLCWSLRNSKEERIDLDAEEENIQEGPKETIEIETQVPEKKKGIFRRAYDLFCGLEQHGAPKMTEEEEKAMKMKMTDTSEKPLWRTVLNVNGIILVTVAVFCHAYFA
Consider `CC(C)OCc1cccc(-c2cc(NC(=O)[C@H]3CNC(=O)C3)nn2-c2ccccc2)c1` [Example 311], for which it took 17.5 nM to reach half-maximal inhibition (IC50).

Regarding `CCCOCc1cccc(-c2cc(NC(=O)[C@H]3CNC(=O)C3)nn2-c2ccccc2)c1` [Example 312], the IC50 – broadly, the midpoint of a concentration-inhibition curve – is 22 nM. The same measure, in the same setting: the result for `CC(C)(C)OCc1cccc(-c2cc(NC(=O)[C@@H]3CNC(=O)C3)nn2-c2ccccc2)c1` [Example 313] reads 19.5 nM; that for `CC(C)COCc1cccc(-c2cc(NC(=O)[C@@H]3CNC(=O)C3)nn2-c2ccccc2)c1` [Example 314], 15 nM. On the same count and under the same terms, then `CC(C)(C)COCc1cccc(-c2cc(NC(=O)[C@@H]3CNC(=O)C3)nn2-c2ccccc2)c1` [Example 315], with 15.5 nM; and `CCCCOc1cccc(-c2cc(NC(=O)[C@@H]3CNC(=O)C3)nn2-c2ccccc2)c1` [Example 316], with 39 nM; and `CCCc1cccc(-c2cc(NC(=O)C3CC[S+]([O-])CC3)nn2-c2ccccc2)c1` (stereo not shown) [Example 318], with 3.2 nM. On the same count and under the same terms, the result for `CC(C)CCOc1cccc(-c2cc(NC(=O)[C@@H]3CNC(=O)C3)nn2-c2ccccc2)c1` [Example 319] reads 28 nM; that for `CC(C)Oc1cccc(-c2cc(NC(=O)[C@H]3CNC(=O)C3)nn2-c2ccccc2)c1` [Example 321], 22 nM; that for `CCCc1cccc(-c2cc(NC(=O)[C@@H]3CNC(=O)C3)nn2-c2cc(C)cc(C)c2)c1` [Example 322], 4.7 nM.

`CCCc1cccc(-c2cc(NC(=O)[C@@H]3CNC(=O)C3)nn2-c2cccc(C)c2C)c1` [Example 323] had an IC50 of 4.8 nM. `CCCc1cccc(-c2cc(NC(=O)[C@@H]3CNC(=O)C3)nn2-c2cc(C)ccc2C)c1` [Example 324] yielded an IC50 of 2.2 nM. The same measure, in the same setting: the result for `CCCc1cccc(-c2cc(NC(=O)[C@@H]3CNC(=O)C3)nn2-c2c(C)cccc2C)c1` [Example 325] reads 47 nM. With `CCCOC(C)(C)c1cccc(-c2cc(NC(=O)[C@@H]3CNC(=O)C3)nn2-c2ccccc2)c1` [Example 326], half-maximal inhibition (IC50) was put at 15 nM. Still for that read-out and setting: the result for `CCCc1cccc(-c2cc(NC(=O)[C@H]3CNC(=O)N3C(C)C)nn2-c2ccccc2)c1` [Example 328] reads 29 nM; that for `CCC(CC)OCc1cccc(-c2cc(NC(=O)[C@@H]3CNC(=O)C3)nn2-c2ccccc2)c1` [Example 332], 22 nM. Still for that read-out and setting: the result for `C[C@@H](OCc1cccc(-c2cc(NC(=O)[C@@H]3CNC(=O)C3)nn2-c2ccccc2)c1)C(F)(F)F` [Example 334] reads 6.3 nM. The same measure, in the same setting: then `C[C@H](OCc1cccc(-c2cc(NC(=O)[C@@H]3CNC(=O)C3)nn2-c2ccccc2)c1)C(F)(F)F` [Example 335], with 16 nM; and `O=C1NC[C@H](C(=O)Nc2cc(-c3cccc(COCCC(F)(F)F)c3)n(-c3ccccc3)n2)O1` [Example 337], with 32 nM; and `CCCc1cccc(-c2cc(NC(=O)[C@@H]3CNC(=O)C3)nn2-c2cccc(OCc3ccccc3)c2)c1` [Example 340], with 16 nM. The compound `CCCc1cccc(-c2cc(NC(=O)[C@@H]3CNC(=O)C3)nn2-c2cccc(O)c2)c1` [Example 341] registered an IC50 of 60 nM. With `CCCc1cccc(-c2cc(NC(=O)[C@@H]3CNC(=O)C3)nn2-c2cccc(OC)c2)c1` [Example 343], the IC50 was 7.2 nM.

In the case of `CCCc1cccc(-c2cc(NC(=O)[C@@H]3CNC(=O)C3)nn2-c2cccc(OC(C)C)c2)c1` [Example 344], 3.35 nM corresponded to half-maximal inhibition (IC50). Same read-out and setting: the result for `CCCc1cccc(-c2cc(NC(=O)[C@@H]3CNC(=O)N3CCOC)nn2-c2ccccc2)c1` [Example 345] reads 7.9 nM. Same read-out and setting: then `CCCc1cccc(-c2cc(NC(=O)[C@H]3CNC(=O)N3CCOC)nn2-c2ccccc2)c1` [Example 346], with 2.7 nM; and `O=C1NC[C@H](C(=O)Nc2cc(-c3cccc(COCC(F)(F)F)c3)n(-c3ccccc3)n2)N1` [Example 349], with 72 nM. For the compound `CC[C@@H](C)OCc1cccc(-c2cc(NC(=O)[C@@H]3CNC(=O)C3)nn2-c2ccccc2)c1` [Example 350], the IC50 was determined as 25 nM. Same read-out and setting: the result for `CC[C@H](C)OCc1cccc(-c2cc(NC(=O)[C@@H]3CNC(=O)C3)nn2-c2ccccc2)c1` [Example 351] reads 32 nM; that for `CC(C)(OCc1cccc(-c2cc(NC(=O)[C@@H]3CNC(=O)C3)nn2-c2ccccc2)c1)C(F)(F)F` [Example 352], 14 nM.

For `CC(OCc1cccc(-c2cc(NC(=O)[C@@H]3CNC(=O)C3)nn2-c2ccccc2)c1)(C(F)(F)F)C(F)(F)F` [Example 353], the IC50 came to 16 nM. On the same count and under the same terms, the result for `O=C1NC[C@H](C(=O)Nc2cc(-c3cccc(COCCC(F)(F)F)c3)n(-c3ccccc3)n2)N1` [Example 354] reads 79 nM; that for `CC(C)(C)C(=O)c1cccc(-c2cc(NC(=O)[C@@H]3CNC(=O)C3)nn2-c2ccccc2)c1` [Example 356], 11 nM.

In the case of `CCCc1cccc(-c2cc(NC(=O)[C@@H]3CNC(=O)C3)nn2-c2ccccc2CC)c1` [Example 358], 17 nM corresponded to half-maximal inhibition (IC50).

Compound `CCCc1cccc(-c2cc(NC(=O)[C@@H]3CNC(=O)C3)nn2-c2ccccc2C(C)C)c1` [Example 359] registered an IC50 of 39 nM. Consider `CCCc1cccc(-c2cc(NC(=O)[C@@H]3CNC(=O)C3)nn2-c2ccc(OC)cc2)c1` [Example 362], for which the IC50 worked out at 30 nM. Still for that read-out and setting: then `CCCc1cccc(-c2cc(NC(=O)[C@@H]3CNC(=O)C3)nn2-c2ccc(C(C)C)cc2)c1` [Example 363], with 13 nM; and `CC(OCc1cccc(-c2cc(NC(=O)[C@H]3CNC(=O)C3)nn2-c2ccccc2)c1)(C(F)(F)F)C(F)(F)F` [Example 364], with 8.3 nM; and `C[C@@H](OCc1cccc(-c2cc(NC(=O)[C@H]3CNC(=O)N3)nn2-c2ccccc2)c1)C(F)(F)F` [Example 365], with 18 nM. The same measure, in the same setting: then `O=C1NC[C@H](C(=O)Nc2cc(-c3cccc(COC(C(F)(F)F)C(F)(F)F)c3)n(-c3ccccc3)n2)O1` [Example 366], with 20 nM; and `C[C@@H](OCc1cccc(-c2cc(NC(=O)[C@H]3CNC(=O)O3)nn2-c2ccccc2)c1)C(F)(F)F` [Example 367], with 11.5 nM; and `CCCc1cccc(-c2cc(NC(=O)[C@@H]3COC(=O)N3)nn2-c2ccccc2)c1` [Example 368], with 56 nM. Still for that read-out and setting: the result for `CCCc1cccc(-c2cc(NC(=O)[C@H]3COC(=O)N3)nn2-c2ccccc2)c1` [Example 369] reads 15 nM.

Staying with this assay, now noted: CHO-K1, at 0.1 uM.
Regarding `CCCc1cccc(-c2cc(NC(=O)C3CC[S+]([O-])CC3)nn2-c2ccccc2)c1` (stereo not shown) [Example 317], the inhibition – broadly, how much of the control response was suppressed – at 0.1 µM was determined as 40%. On to `CCCc1cccc(-c2cc(NC(=O)C3CNC(=O)C34CC4)nn2-c2ccccc2)c1` (stereo not shown) [Example 361], for which the inhibition at 0.1 µM is 33%.

The assay is the same for the next values; noted with them: CHO-K1, at 0.3 uM.
Regarding `CCCc1cccc(-c2cc(NC(=O)[C@@H]3CNC(=O)N3C(C)C)nn2-c2ccccc2)c1` [Example 327], the inhibition at 0.3 µM is 15%. Same read-out and setting: the result for `CCCc1cccc(-c2cc(NC(=O)[C@@H]3CN(CC)C(=O)N3)nn2-c2ccccc2)c1` [Example 329] reads 35%. Same read-out and setting: the result for `CCCc1cccc(-c2cc(NC(=O)[C@H]3CN(CC)C(=O)N3)nn2-c2ccccc2)c1` [Example 330] reads 11%; that for `CCCc1cccc(-c2cc(NC(=O)[C@@H]3CNC(=O)N3CC(=O)O)nn2-c2ccccc2)c1` [Example 347], 11%; that for `CCCc1cccc(-c2cc(NC(=O)[C@H]3CNC(=O)N3CC(=O)O)nn2-c2ccccc2)c1` [Example 348], 26%.
